Several values for one entry are separate records, joined by “and”; a condition that tells them apart may be missing. Identical values can stand only once. Inconclusive results and toxic doses are left out. No stated cut-off is given here; in the data, active means T/C of 150% or more; inactive means T/C below 125%.
Tested on: L1210 leukemia ip in BDF1 mice, survival T/C
Assay: NCI In Vivo Anticancer Drug Screen. Data for tumor model L1210 Leukemia (intraperitoneal) in B6D2F1 (BDF1) mice
Conditions: endpoint: mean survival time, higher = longer survival
In short: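 Ratio derived from survival: compound-dosed mice over vehicle-dosed mice, all bearing a transplantable tumor.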

[1] = dose: 75.0 mg/kg/injection, schedule: Q01DX001 (ip), vehicle: saline
[2] = dose: 150.0 mg/kg/injection, schedule: Q01DX001 (ip), vehicle: saline
[3] = dose: 100.0 mg/kg/injection, schedule: Q04DX002 (ip), vehicle: saline with Tween-80
[4] = dose: 100.0 mg/kg/injection, schedule: Q01DX001 (ip), vehicle: saline
[5] = dose: 200.0 mg/kg/injection, schedule: Q04DX002 (ip), vehicle: saline with Tween-80
[6] = dose: 12.5 mg/kg/injection, schedule: Q01DX009 (ip), vehicle: Klucel (hydroxypropylcellulose) (HPC)
[7] = dose: 25.0 mg/kg/injection, schedule: Q01DX009 (ip), vehicle: Klucel (hydroxypropylcellulose) (HPC)
[8] = dose: 25.0 mg/kg/injection, schedule: Q04DX003 (ip), vehicle: Klucel (hydroxypropylcellulose) (HPC)
[9] = dose: 50.0 mg/kg/injection, schedule: Q04DX003 (ip), vehicle: Klucel (hydroxypropylcellulose) (HPC)
[10] = dose: 100.0 mg/kg/injection, schedule: Q01DX001 (ip), vehicle: Klucel (hydroxypropylcellulose) (HPC)
[11] = dose: 200.0 mg/kg/injection, schedule: Q01DX001 (ip), vehicle: Klucel (hydroxypropylcellulose) (HPC)
[12] = dose: 100.0 mg/kg/injection, schedule: Q01DX001 (ip), vehicle: carboxymethylcellulose (CMC)

Measured: T/C

COC(=O)c1[nH]cnc1N1CC[N+](CCCl)=N1
inactive: dose: 37.5 mg/kg/injection, schedule: Q01DX009 (ip), vehicle: saline 116 % of control | dose: 37.5 mg/kg/injection, schedule: Q04DX003 (ip), vehicle: saline 100 % of control | [1] 98 % of control | dose: 75.0 mg/kg/injection, schedule: Q01DX009 (ip), vehicle: saline 95 % of control | dose: 75.0 mg/kg/injection, schedule: Q04DX003 (ip), vehicle: saline 107 % of control | [2] 100 % of control | dose: 150.0 mg/kg/injection, schedule: Q01DX009 (ip), vehicle: saline 103 % of control | dose: 150.0 mg/kg/injection, schedule: Q04DX003 (ip), vehicle: saline 102 % of control

NC(=O)c1c(/N=C/c2cc(Br)ccc2O)sc2c1CCCC2
inactive: dose: 25.0 mg/kg/injection, schedule: Q04DX002 (ip), vehicle: saline with Tween-80 87 % of control | dose: 50.0 mg/kg/injection, schedule: Q04DX002 (ip), vehicle: saline with Tween-80 87 % of control | [3] 93 % of control | dose: 400.0 mg/kg/injection, schedule: Q04DX002 (ip), vehicle: saline with Tween-80 87 % of control

NCCN1CCN=C1C1=NCCN1CCN
inactive: dose: 100.0 mg/kg/injection, schedule: Q01DX009 (ip), vehicle: saline 98 % of control | dose: 100.0 mg/kg/injection, schedule: Q04DX003 (ip), vehicle: saline 100 % of control | dose: 200.0 mg/kg/injection, schedule: Q01DX009 (ip), vehicle: saline 93 % of control | dose: 200.0 mg/kg/injection, schedule: Q04DX003 (ip), vehicle: saline 98 % of control | dose: 400.0 mg/kg/injection, schedule: Q01DX009 (ip), vehicle: saline 98 % of control | dose: 400.0 mg/kg/injection, schedule: Q04DX003 (ip), vehicle: saline 96 % of control

CC(=O)NCCCc1c(C)nc(NC(C)=O)[nH]c1=O
inactive: dose: 25.0 mg/kg/injection, schedule: Q01DX001 (ip), vehicle: saline 94 % of control | dose: 50.0 mg/kg/injection, schedule: Q01DX001 (ip), vehicle: saline 108 % of control | [4] 102 % of control

CCOc1ccc(NC(=S)NC(=O)C(C)Oc2ccccc2)cc1 (configuration not stated)
inactive: dose: 50.0 mg/kg/injection, schedule: Q01DX009 (ip), vehicle: saline with Tween-80 102 % of control | dose: 800.0 mg/kg/injection, schedule: Q04DX002 (ip), vehicle: saline with Tween-80 96 % of control and 101 % of control

CCC1(c2ccccc2)C(=O)N(CBr)C(=O)N(CBr)C1=O
inactive: dose: 100.0 mg/kg/injection, schedule: Q01DX009 (ip), vehicle: saline with Tween-80 90 % of control | [3] 92 % of control | [5] 100 % of control

FC(F)(F)C(=Cc1nc2ccccc2s1)C(F)(F)F
inactive: [6] 91 % of control | dose: 12.5 mg/kg/injection, schedule: Q04DX003 (ip), vehicle: Klucel (hydroxypropylcellulose) (HPC) 93 % of control | [7] 98 % of control | [8] 97 % of control | [9] 95 % of control

SCc1ccccc1
inactive: [4] 91 % of control | dose: 200.0 mg/kg/injection, schedule: Q01DX001 (ip), vehicle: saline 111 % of control | dose: 400.0 mg/kg/injection, schedule: Q01DX001 (ip), vehicle: saline 105 % of control

C[n+]1ccccc1/C=C/c1csc2ccccc12
inactive: dose: 5.0 mg/kg/injection, schedule: Q01DX001 (ip), vehicle: carboxymethylcellulose (CMC) 100 % of control | dose: 10.0 mg/kg/injection, schedule: Q01DX001 (ip), vehicle: carboxymethylcellulose (CMC) 102 % of control | dose: 20.0 mg/kg/injection, schedule: Q01DX001 (ip), vehicle: carboxymethylcellulose (CMC) 100 % of control | dose: 40.0 mg/kg/injection, schedule: Q01DX001 (ip), vehicle: carboxymethylcellulose (CMC) 100 % of control | dose: 80.0 mg/kg/injection, schedule: Q01DX001 (ip), vehicle: carboxymethylcellulose (CMC) 107 % of control

CC(C)OC(=O)c1cc(O)c(O)c(O)c1
inactive: [1] 102 % of control | [2] 94 % of control | dose: 300.0 mg/kg/injection, schedule: Q01DX001 (ip), vehicle: saline 94 % of control

CCC(=O)OC1(c2ccccc2)CCN(CCC(O)c2ccccc2)CC1 (configuration not stated)
inactive: dose: 3.13 mg/kg/injection, schedule: Q01DX009 (ip), vehicle: Klucel (hydroxypropylcellulose) (HPC) 98 % of control | dose: 6.25 mg/kg/injection, schedule: Q01DX009 (ip), vehicle: Klucel (hydroxypropylcellulose) (HPC) 104 % of control | [6] 95 % of control | [7] 94 % of control

CC(C)(O)C(C)(O)c1cccc(Cl)c1 (configuration not stated)
inactive: [6] 100 % of control | [7] 109 % of control | [8] 91 % of control | dose: 50.0 mg/kg/injection, schedule: Q01DX009 (ip), vehicle: Klucel (hydroxypropylcellulose) (HPC) 100 % of control | [9] 93 % of control | dose: 100.0 mg/kg/injection, schedule: Q01DX009 (ip), vehicle: Klucel (hydroxypropylcellulose) (HPC) 100 % of control | dose: 100.0 mg/kg/injection, schedule: Q04DX003 (ip), vehicle: Klucel (hydroxypropylcellulose) (HPC) 96 % of control | dose: 200.0 mg/kg/injection, schedule: Q01DX009 (ip), vehicle: Klucel (hydroxypropylcellulose) (HPC) 98 % of control | dose: 200.0 mg/kg/injection, schedule: Q04DX003 (ip), vehicle: Klucel (hydroxypropylcellulose) (HPC) 90 % of control

O=C1c2cc([N+](=O)[O-])ccc2-c2cccc(F)c21
inactive: dose: 100.0 mg/kg/injection, schedule: Q04DX003 (ip), vehicle: acetone 102 % of control | dose: 200.0 mg/kg/injection, schedule: Q04DX003 (ip), vehicle: acetone 94 % of control | dose: 400.0 mg/kg/injection, schedule: Q04DX003 (ip), vehicle: acetone 109 % of control

N#[N+]c1ccc(Br)cc1-c1nc(N)c2cc(Br)ccc2n1
inactive: dose: 50.0 mg/kg/injection, schedule: Q01DX001 (ip), vehicle: Klucel (hydroxypropylcellulose) (HPC) 94 % of control | [10] 105 % of control | [11] 105 % of control

O=C1N(Cl)C2C(N1Cl)N(Cl)C(=O)N2Cl (configuration not stated)
inactive: dose: 50.0 mg/kg/injection, schedule: Q01DX001 (ip), vehicle: carboxymethylcellulose (CMC) 97 % of control | [12] 97 % of control

O=C1C=CC(=O)c2c1ccc1c2[nH]c2ccccc21
inactive: [3] 113 % of control | [5] 90 % of control

C(=C/n1cnc2ccccc21)/c1ccccc1
inactive: dose: 87.5 mg/kg/injection, schedule: Q04DX003 (ip), vehicle: Klucel (hydroxypropylcellulose) (HPC) 92 % of control | dose: 175.0 mg/kg/injection, schedule: Q04DX003 (ip), vehicle: Klucel (hydroxypropylcellulose) (HPC) 96 % of control | dose: 350.0 mg/kg/injection, schedule: Q04DX003 (ip), vehicle: Klucel (hydroxypropylcellulose) (HPC) 91 % of control

NC(=O)OCCOCCOC(N)=O
inactive: dose: 100.0 mg/kg/injection, schedule: Q04DX003 (ip), vehicle: saline with Tween-80 98 % of control | dose: 200.0 mg/kg/injection, schedule: Q04DX003 (ip), vehicle: saline with Tween-80 98 % of control | dose: 400.0 mg/kg/injection, schedule: Q04DX003 (ip), vehicle: saline with Tween-80 101 % of control

Cc1ccc(C[n+]2cc([O-])on2)cc1C
inactive: dose: 100.0 mg/kg/injection, schedule: Q01DX Z (ip), vehicle: saline 105 % of control | dose: 200.0 mg/kg/injection, schedule: Q01DX Z (ip), vehicle: saline 93 % of control

CC(=O)c1cccc(NS(=O)(=O)c2ccc(Cl)cc2)c1
inactive: dose: 100.0 mg/kg/injection, schedule: Q04DX002 (ip), vehicle: Klucel (hydroxypropylcellulose) (HPC) 94 % of control | dose: 200.0 mg/kg/injection, schedule: Q04DX002 (ip), vehicle: Klucel (hydroxypropylcellulose) (HPC) 100 % of control | dose: 400.0 mg/kg/injection, schedule: Q04DX002 (ip), vehicle: Klucel (hydroxypropylcellulose) (HPC) 91 % of control

O=C(O)c1cccc2c1C(=O)c1ccccc1-2
inactive: [10] 93 % of control | [11] 106 % of control | dose: 400.0 mg/kg/injection, schedule: Q01DX001 (ip), vehicle: Klucel (hydroxypropylcellulose) (HPC) 101 % of control

Cn1ncc2c(=O)[nH]nnc21
inactive: [12] 98 % of control | dose: 200.0 mg/kg/injection, schedule: Q01DX001 (ip), vehicle: carboxymethylcellulose (CMC) 89 % of control | dose: 400.0 mg/kg/injection, schedule: Q01DX001 (ip), vehicle: carboxymethylcellulose (CMC) 104 % of control
